Assay results taken from publication PMC3956977, “Crystal structure of E. coli arginyl-tRNA synthetase and ligand binding studies revealed key residues in arginine recognition” (Protein & Cell, 2014).
Substitutions are numbered along the chain they refer to.

Key:
Assay in all cases: isothermal titration calorimetry
Type in all cases: binding
Conditions in all cases: read-out: Ka (M^-1) (converted)
[1] = target: T1, eArgRS (E. coli arginyl-tRNA synthetase, ArgRS) (Escherichia coli, UniProt P11875)
T1 construct: gene argS; full length, 577 residues; pET-28a-SUMO in E. coli BL21(DE3), N-terminal His-SUMO tag cleaved by Ulp1; mutants made in pET22b/ArgRS
T1 sequence (P11875 1-577): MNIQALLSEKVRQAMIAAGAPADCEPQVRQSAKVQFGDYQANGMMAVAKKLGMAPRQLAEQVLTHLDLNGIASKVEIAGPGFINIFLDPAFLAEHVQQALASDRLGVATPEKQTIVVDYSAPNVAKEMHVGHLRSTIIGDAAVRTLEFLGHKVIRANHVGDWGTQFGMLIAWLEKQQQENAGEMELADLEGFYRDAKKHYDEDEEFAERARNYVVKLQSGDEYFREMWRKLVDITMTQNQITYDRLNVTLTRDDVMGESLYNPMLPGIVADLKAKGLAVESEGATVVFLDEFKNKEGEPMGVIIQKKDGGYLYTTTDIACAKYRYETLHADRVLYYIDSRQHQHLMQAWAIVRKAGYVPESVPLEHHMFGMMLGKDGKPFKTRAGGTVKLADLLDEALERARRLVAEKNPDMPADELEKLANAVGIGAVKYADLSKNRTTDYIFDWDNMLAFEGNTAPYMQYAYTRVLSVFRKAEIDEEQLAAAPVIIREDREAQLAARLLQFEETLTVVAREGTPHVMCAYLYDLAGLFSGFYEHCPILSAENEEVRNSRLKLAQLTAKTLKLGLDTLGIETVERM
Excerpt: (§1) isothermal titration calorimetry on eArgRS (E. coli arginyl-tRNA synthetase, ArgRS)

[2] = target: T2, eArgRS (E. coli arginyl-tRNA synthetase, ArgRS) (Escherichia coli, UniProt P11875, R324A)
T2 construct: gene argS; full length, 577 residues; pET-28a-SUMO in E. coli BL21(DE3), N-terminal His-SUMO tag cleaved by Ulp1; mutants made in pET22b/ArgRS
T2 sequence (P11875 1-577 R324A): T1 sequence (P11875 1-577) with R324A
Excerpt: as §1

[3] = target: T3, eArgRS (E. coli arginyl-tRNA synthetase, ArgRS) (Escherichia coli, UniProt P11875, Y313A)
T3 construct: gene argS; full length, 577 residues; pET-28a-SUMO in E. coli BL21(DE3), N-terminal His-SUMO tag cleaved by Ulp1; mutants made in pET22b/ArgRS
T3 sequence (P11875 1-577 Y313A): T1 sequence (P11875 1-577) with Y313A
Excerpt: as §1

What does the source list for `N=C(N)NCCC[C@H](N)C(=O)O` [L-arginine]?
Kd [1]: 46.5 µM; Kd [2]: 191 µM; Kd [3]: 80.6 µM
